# Test results as given in the METLIN SMRT retention time set (Domingo-Almenara et al. 2019).
# Assay: gradient 5% acetonitrile 3 min, to 50% in 2 min, to 85% in 15 min, held 3 min, 100 µL/min
# Details: column: Zorbax Extend-C18 2.1 x 50 mm; eluents: water / acetonitrile, 0.1% formic acid
# Summary of the method: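 Retention times of pure standards were taken from adduct peaks that were selected by computer and manually inspected. Over 3 months, mixtures of ~100 molecules were run by HPLC–quadrupole time-of-flight mass spectrometry in positive and negative ionization mode. The Zorbax Extend-C18 column (2.1 × 50 mm, 1.8 μm) ran at 100 μL/min in water and acetonitrile, each containing 0.1% formic acid, with 40 μL dead volume and 900 μL dwell volume.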
row,RP-LC retention time [s],SMILES
1,822,Cn1c(=O)n([C@H]2CCCN(S(=O)(=O)c3cccc4nsnc34)C2)c2ncccc21
2,914,CC(C)n1cc(S(=O)(=O)NCc2ccccc2Cl)c2cccnc21
3,1020,CCc1nc(-c2csc(S(=O)(=O)N3CCC(C(=O)Nc4ccc(C)cc4)CC3)c2)no1
4,1080,CCCN1C(=O)c2cc(S(=O)(=O)Nc3cc(F)cc(F)c3)ccc2Oc2cccnc21
5,1350,Cc1ccc(CNc2ncccc2-c2nnc(-c3ccc(Cl)cc3)o2)o1
6,666,Cc1nc(C)c2c(n1)N(Cc1cccc(F)c1)C(=O)CC2
7,1110,Cc1cccc(NC(=O)CSc2cc(N3CCN(c4ccccc4F)CC3)ncn2)c1
8,735,CCn1cnc2ccc(-c3noc(CCc4c[nH]c5ccccc45)n3)cc21
9,994,Cc1ccc(-c2nc(CCN(C)C(=O)Nc3cc(F)ccc3F)no2)cc1
10,697,Cc1ccc(S(=O)(=O)N2CC(c3nnc(-c4ccncc4)o3)C3(CCOCC3)C2)cc1 (centres undefined)
11,749,CC(C)c1ccc(S(=O)(=O)N2CCC(c3ccncc3)CC2)cc1
12,721,Cc1ccc(NS(=O)(=O)c2cc(-c3[nH]ncc3C(=O)N3CCOCC3)oc2C)c(C)c1
13,673,Cc1ccc(C2c3[nH]c4ccccc4c3CCN2C(=O)c2ccnn2C)cc1 (centres undefined)
14,551,CC(=O)N1CCc2cc(S(=O)(=O)C(C)CC(=O)NC3CCN(Cc4ccccc4)CC3)ccc21 (centres undefined)
15,926,Fc1ccc(-c2nnc(Cc3nc(-c4cccs4)no3)o2)cc1
16,738,CC(=O)N1CCc2cc(CNS(=O)(=O)c3ccccc3F)ccc21
17,941,CCOC(=O)c1ccc(NS(=O)(=O)c2ccc(-c3c(C)noc3C)cc2)cc1
18,974,CSc1ccc(-c2nc3cnccn3c2Nc2ccccc2C)cc1
19,959,CC1(C(=O)NC2CCCCC2)CN(S(=O)(=O)c2ccccc2)CC(=O)N1c1ccc(F)cc1 (centres undefined)
20,955,Cc1ccc(S(=O)(=O)N2CCc3c(c(-c4nnc(-c5ccccc5F)o4)nn3C)C2)cc1
21,991,Cc1cc(N2CCCCC2C)n2nc(-c3ccccc3C)nc2n1 (centres undefined)
22,810,Cc1ccc(Nc2c(-c3ccc(Cl)cc3)nc3cccc(C)n23)cc1
23,955,CCC(=O)N1c2ccc(S(=O)(=O)N3CCCCC3)cc2CC1C(=O)NCc1ccc(C)cc1 (centres undefined)
24,1150,CCc1ccccc1S(=O)(=O)N1CCc2nc(-c3ccc(OC)cc3)ncc2C1
25,1170,CCc1cc(=O)n(CC(=O)Nc2ccccc2F)c(-c2cccc(F)c2)n1
26,581,c1cncc(-c2nc(-c3ccc4c(c3)ncn4CCN3CCCCC3)no2)c1
27,782,CCN1CCN(CCNC(=O)c2nc3ccccn3c2-c2ccc(Cl)cc2)CC1
28,777,O=C(c1cncc(Br)c1)N1CCCC(c2nnc(-c3ccccc3)o2)C1 (centres undefined)
29,1300,CCOc1ccccc1NC(=O)C1CCCN(c2nc3c(s2)c(C)nn3-c2ccccc2)C1 (centres undefined)

# The next lines start with the compound.
row,SMILES,RP-LC retention time [s]
1,Cn1c(SCC(=O)Nc2ncccn2)nnc1-c1ccc2c(c1)OCO2,579
2,CCCCCCCNC(=O)C1CCCN(c2ncc(-c3ccccc3)cn2)C1 (centres undefined),1260
3,CC(=O)N(C1CC1)C1CCOC2(CCN(C(=O)c3ccsc3)CC2)C1 (centres undefined),673
4,CCNC(=O)C1CCN(S(=O)(=O)c2cc(C(=O)N3CCCCCC3)cs2)CC1,717
5,OC[C@@H]1CN(Cc2ccc3[nH]ccc3c2)C[C@H]1c1ccccn1,580
6,COc1ccc(-c2cc(N3CCCC(C(=O)Nc4cccc5cccnc45)C3)ncn2)cc1 (centres undefined),629
7,COCCN1C(=O)c2ccccc2C(C(=O)NCc2ccccn2)C1c1cccs1 (centres undefined),642
8,Cc1ccsc1C(=O)NCCc1cn(CC(C)C)c2ncccc12,844
9,CCc1ccc(NC(=O)Cn2nc3cc(C)nc(N4CCCC4)n3c2=O)cc1,968
10,Fc1ccc(-c2nc(-c3ccc(-n4ccnc4)nc3)no2)cc1F,871
11,CCOC(=O)Cc1ccc(NC(=O)N2CCc3nc[nH]c3C2)cc1,588
12,COc1ccc(NC(=O)Cn2nc3n(c2=O)CCCC3)cc1,634
13,COc1ccc(S(=O)(=O)N2CC3CN(C(=O)CC(C)C)CC(C2)O3)cc1,759
14,CC(Oc1ccccc1Cl)C(=O)NCCn1nc(-n2cccn2)ccc1=O (centres undefined),710
15,CC(C)CN1CCN(C(=O)CN2CCN(Cc3ccccc3)C2=O)CC1,579
16,CN(C)c1ccc(-c2nc3ccc(Cl)cn3c2Nc2ccc3c(c2)OCO3)cc1,764
17,CCn1cnc(S(=O)(=O)N2CCC(C(=O)NCc3ccc(Cl)cc3)CC2)c1,729
18,Cc1ncc2c(SCC(=O)Nc3ccc(Br)cc3)ncnc2n1,578
19,CCNC(=O)N1CCC(c2noc(-c3ccccn3)n2)C1 (centres undefined),594
20,CCNC(=O)C1CCN(C(=O)Nc2ccc(NC(=O)Nc3ccccc3)cc2)CC1,658

row,SMILES,RP-LC retention time [s]
1,O=C(CN1CCC2(CC1)N=C(c1ccc(Br)cc1)C(=O)N2)Nc1ccc(F)cc1,700
2,Cn1cccc1C(=O)C(=O)Nc1ccccc1C(F)(F)F,1060
3,Cc1cc(S(=O)(=O)N2CCN(C3CCN(C)C3=O)CC2)ccc1Cl (centres undefined),595
4,CCN(CC)CCCNc1ccc(-c2nc(-c3cccc(F)c3)no2)cn1,707
5,O=C(NCc1cc(F)cc(F)c1)c1ccc2c(c1)nc1n2CCN(C2CCCCC2)C1=O,830
6,CCn1c(C(=O)NCCCc2ccccc2)cc2c(-c3cccs3)nn(-c3ccccc3)c21,1280
7,CC(C)C(=O)Nc1ccc(-n2cnc(C(=O)NCc3ccc(F)cc3F)c2)nc1,773
8,Cc1cc(C)cc(NC(=O)N2CCC(CN3CCCC(C)C3)CC2)c1 (centres undefined),648
9,O=C(NCC1CCCO1)N1CC(c2nc(CCOCc3ccccc3)no2)C1 (centres undefined),713
10,CCc1cccc(C)c1NC(=O)Cn1nc2n(c1=O)CCCC2,717
11,CN1C(=O)c2cc(C(=O)N3CCOCC3)nn2CC1(C)C(=O)NCc1ccc(F)cc1 (centres undefined),644
12,Cc1noc(C2(NC(=O)c3ccc(C(C)(C)C)cc3)CCCCC2)n1,1090
13,O=C(NCc1cccs1)C1CCCN(Cc2nc(-c3cccnc3)no2)C1 (centres undefined),571
14,CCOC1CCN(C(=O)NC(C)(C)C)CC1,700
15,Cc1[nH]c(C(=O)N2CCC(CC(=O)NCc3cccc(Cl)c3)CC2)c(C)c1C(=O)OC(C)C,868
16,Cc1nnc(-c2c(S(=O)(=O)NC3CCCCC3)c(C)n(C)c2C)o1,814
17,CCC(C)NC(=O)C1CCN(S(=O)(=O)c2cc(-c3noc(C)n3)cs2)CC1 (centres undefined),797
18,Cc1noc(C)c1CC(=O)N1CCc2nn(CC3CC3)c(=O)n2CC1,626
19,CCCCOc1ccc(CNC(=O)CSc2nccnc2Oc2ccccc2)cc1,1130
20,Cc1cc(NC(=O)CSc2nnc(NC(=O)c3snnc3C)s2)no1,666

row,SMILES,RP-LC retention time [s]
1,CCn1c(=O)n(CC(=O)N2CCN(C)CC2)c(=O)c2cnc(-c3ccc(Cl)cc3)nc21,696
2,COC(=O)Nc1ccc(CC(=O)NC2CC2)cc1,592
3,COC(=O)CN1N=C(C(=O)N2CCC(C)CC2)S(=O)(=O)c2ccccc21,825
4,CCCn1cc(CCNC(=O)Nc2cccc(C)c2)c2cccnc21,782
5,Cc1csc(-c2cc(S(=O)(=O)NCCN3CCOCC3)cn2CC(=O)N2CCCCC2)n1,654
6,Cc1ccc(-c2nc3cnccn3c2NCCC(=O)NCc2ccco2)cc1,684
7,O=C(NCc1nnc2n1CCCC2)c1ccc2c(c1)OCO2,1260
8,CCN(C(=O)C1CCCN1S(=O)(=O)c1cc2c(cc1C)NC(=O)CO2)c1cccc(C)c1 (centres undefined),818
9,C=CCN1CCN(c2nc3cc(C(=O)OC)ccc3c(=O)n2-c2ccccc2)CC1,637
10,O=C(NC1CCCC1)N1CCC(c2noc(-c3cccnc3)n2)C1 (centres undefined),701
11,COC(=O)c1ccccc1Nc1c(-c2ccc(N(C)C)cc2)nc2cnccn12,921
12,CCN1CCN(C(=O)C2CCN(S(=O)(=O)c3cc(-c4noc(C)n4)cs3)CC2)CC1,615
13,O=C(CCc1ccc2c(c1)CN(S(=O)(=O)c1cccc3nsnc13)CCO2)NC1CC1,756
14,Cc1noc(C)c1C1CCCN1C(=O)Cc1ccccc1Cl (centres undefined),806
15,CCCOc1ccc(C2C(=O)N(C3CCC(C)CC3)CC(=O)N2Cc2ccco2)cc1OC (centres undefined),1070
16,Cc1cc(F)ccc1NC(=O)Cn1c(N)nc(C)c(C)c1=O,617
17,Cc1cc2c(=O)n(CC(=O)NCc3ccc(F)cc3)ccc2s1,751
18,CCOC(=O)CC(=O)CSc1nc2ccsc2c(=O)n1Cc1ccc(F)cc1,903
19,O=C(Nc1ccc(C2=NCCN2)cc1)c1ccc(Cl)c(C(=O)Nc2ccc(C3=NCCN3)cc2)c1,618
20,CNC(=O)CCc1nc2ccccc2n(CC(=O)NC(C)CCc2ccccc2)c1=O (centres undefined),728
